Reference: patent publication US20240182521A1, “CELL-PENETRATING PEPTIDE VARIANT AND USE THEREOF” (REGEN INNOPHARM INC., priority 2021, published 2024)

Key:
fibroblast 3T3 cells = assay: Cell migration across a scratched boundary, LPX105 variants; type: cell-based; settings: 72 hours after treatment, control group PBS
Protocol: Using the method described in Example 1-2 above, the cell migration promotion of LPX105, LPH105, and LPHS105 was confirmed. Specifically, in order to confirm the cell migration effect, fibroblast 3T3 cells were treated with LPX105, LPH105, and LPHS105 peptides, incubated for 1 hour, and then washed. Thereafter, the migration of cells across a scratched boundary was measured 72 hours after treatment. The number of cells that migrated across a scratch line was measured by image analysis using ImageJ.

[1] = tested on: diabetes model mice (db/db); assay: Diabetic wound healing of LPX105 variants in db/db mice; type: in vivo, mouse; settings: 3 μg daily for 10 days, control group PBS
Protocol: By using the method described in Example 2-4 above, the diabetic wound healing effect of LPX105, LPH105, and LPHS105 was evaluated. Specifically, the skins of diabetes model mice (db/db) (n=14 each) were punched with an 8 mm diameter puncher and treated with LPX105, LPH105 and LPHS105 (3 μg) or PBS daily for 10 days and subjected to wound dressing. The wound healing effect was confirmed by analyzing an initial wound area and a re-epithelialization area using ImageJ (mean SEM n=3, *; p<0.05).

diabetic mice (db/db) = assay: Histological evaluation of wound re-epithelialization (H/E, day 10); type: in vivo, mouse; settings: day 10 after initial injury
From the text: In order to histologically evaluate wound re-epithelialization in diabetic mice by LPX peptides 101, 102 and 103, wound tissues from diabetic mice (db/db) treated by each LPX were H/E stained on day 10 after initial injury and confirmed under a microscope (50X and 100x).

[2] = tested on: diabetic mouse model (db/db); assay: Diabetic wound healing by combined treatment with EGF; type: in vivo; settings: db/db mice, 8 mm punch wound
From the text: The diabetic wound healing effect by combined treatment with LPX peptide and EGF was confirmed.

[3] = tested on: diabetes model mice (db/db); assay: Diabetic wound healing in diabetes model mice (db/db); type: in vivo, mouse
Protocol: (§1) The skins of wild type (WT) mice and diabetes model mice (db/db) (n=14 each) were punched with an 8 mm diameter puncher and treated with LPX101 (2 mg/ml, 20 μl) or PBS daily for 14 days and subjected to wound dressing. The wound healing effect was confirmed by analyzing an initial wound area and a re-epithelialization area using ImageJ (mean SEM n=3, *; p<0.05). In addition, the wound healing effect in wounds treated with LPX101 was histologically evaluated. Specifically, diabetic mice (db/db) were stained with H/E or trichrome at 7 and 14 days after wound induction and then confirmed under a microscope, and re-epithelialization and granulation tissue were quantified using ImageJ (n=3, ***; p<0.001). In addition, the wounds of db/db mice were treated with LPX101, and the tissue epidermis after 14 days was histologically analyzed.
(§2) The wound healing effects of LPX101, LPX102, and LPX103 were confirmed in an STZ-induced diabetic mouse model. […] Thereafter, according to a schedule shown in FIG. 12A, PBS (negative control), EGF (positive control) 50 μg/ml, LPX101 2 mg/ml (20 μl), LPX102 and LPX103 (2 mg/ml (20 μl)) were treated, respectively, and then the effect of wound healing in a diabetes-induced mouse model was confirmed through imaging, re-epithelialization, and diabetes phenotypes (hyperglycemia and impaired glucose tolerance test (IPGTT)) (n=10 for each group, *; p<0.05). Additionally, to compare the regenerative activity of LPX peptides in a diabetic mouse model, wound healing kinetics measured by a % non-epithelialized area to an initial wound area (n=8 for each group), and quantification of re-epithelialization analyzed as % of a re-epithelialized area to the initial wound area were confirmed.

[4] = tested on: NIH3T3 cell line and mouse mesenchymal stem cells (mMSCs); assay: Cell penetrating effect (FACS, confocal microscopy) of FITC-attached peptides; type: cell-based
From the text: A cell penetrating effect was confirmed in penetrating peptides LPX101 (SEQ ID NO: 11), LPX102 (SEQ ID NO: 12), and LPX103 (SEQ ID NO: 13) having three structures including a signal peptide, an RNA binding affinity residue, and an RNA binding residue (FIG. 1), and two zinc finger motifs. Specifically, in order to measure cell penetrating efficiency, respective peptides that may have been attached to the cell membrane surface were removed by applying a Heparin & Trypsin washing method used in a Keplan group [Kaplan I M, Wadia J S, Dowdy S F (2005) Cationic TAT peptide transduction domain enters cells by macropinocytosis. J Controlled release 102: 247-253] to a NIH3T3 cell line and mouse mesenchymal stem cells (mMSCs). […] Then, the cells were washed three times with PBS and detached with trypsin, and then FACS analysis was performed. In addition, whether each peptide actually existed in the nucleus or cytoplasm of the cell was confirmed by confocal microscopy after 18 hours of peptide treatment, and membrane binding was labeled with PKH.

NIH3T3 cell line = assay: Cell growth (relative proliferation rate vs control, 3 days); type: cell-based, mouse; settings: concentrations of 2 μM and 5 μM; 3 days after treatment
Protocol: (§3) An effect of LPX101 peptide on cell growth was confirmed in a NIH3T3 cell line, and the effects of LPX101, LPX102, and LPX103 peptides on cell migration were confirmed in diabetic human epidermal keratinocyte (DHEK) as a diabetic cell line. Specifically, mMSC or NIH3T3 cells were treated with the LPX101 peptide, incubated for 1 hour, and then washed. A % increase in cell growth by LPX treatment was confirmed by measuring the number of cells after 3 days of treatment and calculating a relative proliferation rate as % compared to a control group (n=3). Additionally, in order to confirm the cell migration effect, DHEK cells were treated with LPX101, LPX102, and LPX103 peptides, incubated for 1 hour, and then washed. Thereafter, the migration of cells across a scratched boundary was measured 72 hours after treatment. The number of cells that migrated across a scratch line was measured by image analysis using ImageJ.

NIH3T3 cells [5] = assay: Glycolysis, extracellular acidification rate (ECAR), Seahorse XF analyzer; type: cell-based, mouse
Protocol: NIH3T3 cells were incubated in a glucose-free medium for 1 day and then sequentially treated with glucose, oligomycin, and 2-DG, and an extracellular acidification rate (ECAR) was measured as a measure of lactate production using a Seahorse extracellular flux (XF) analyzer and quantification and profile of ECAR were confirmed in cells treated with LPX peptide (Mean SEM n=3, *; p<0.05).

[6] = tested on: Human umbilical vein endothelial cells (Huvec); assay: Blood vessel formation on cytokine-free Matrigel; type: cell-based; settings: Huvec treated for one day
From the text: Human umbilical vein endothelial cells (Huvec) were dispensed on a cytokine-free Matrigel and treated with LPX101 for one day (n=3, 1 expt). […], the blood vessel formation was confirmed under a microscope, and blood vessel formation parameters including the number of nodules, the number of intravascular junctions, and the number of master segments were quantified.

wild type (WT) mice = assay: Skin punch wound healing in wild type mice; type: in vivo, mouse; settings: 2 mg/ml, 20 μl daily for 14 days
Protocol: as §1

[7] = tested on: diabetic human epidermal keratinocyte (DHEK); assay: Cell migration across a scratched boundary; type: cell-based
Protocol: as §3

NIH3T3 cells [8] = assay: Cell migration effects, Table 1; type: cell-based, mouse; settings: vehicle = 1
Protocol: Various variants of the LPX peptides were prepared as illustrated in FIG. 18. Specifically, various constructs (26 constructs including 101) were prepared by adding various mutations (substitution of a CPP region, amino acid mutation of an RNA binding portion and a zinc finger structure, and addition of his-tag) to the structure of LPX101 in FIG. 19 (FIG. 20).

[9] = tested on: STZ-induced diabetic mouse model; assay: Wound healing in STZ-induced diabetic mouse model; type: in vivo; settings: 2 mg/ml (20 μl)
Protocol: as §2

Substance | cell migration (fibroblast 3T3 cells) | diabetic wound healing [1] | re-epithelialization of diabetic wounds (histology) (diabetic mice (db/db)) | diabetic wound healing effect in combination with EGF [2] | glucose metabolism (glycolysis), ECAR (NIH3T3 cells [5]) | Effects on cell migration (3 expts) (NIH3T3 cells [8]; 1 uM) | Effects on cell migration (3 expts) (NIH3T3 cells [8]; 5 uM) | also measured
LPH105: LPX105 variant of SEQ ID NO: 39, Histidine tag insertion (HHHHHHRRPKGKSMQKRRSKGDRCYNCGGLDHHAKECKL; LPH105) | increased cell migration more than LPX105 | accelerated the diabetic wound healing more significantly than LPX105 | – | – | – | – | – | –
LPHS105: LPX105 variant of SEQ ID NO: 40, zinc finger region mutations and Histidine tag insertion (HHHHHHRRPKGKSMQKRRSKGDRCYNCGELDHHAKECKL; LPHS105) | increased cell migration more than LPX105 | accelerated the diabetic wound healing more significantly than LPX105 | – | – | – | – | – | –
LPX101: cell-penetrating peptide consisting of amino acid sequence SEQ ID NO: 11 (RRPKGKSMQKRRSKGDRCYNCGGLDHHAKECKLPPQPKKCHFCQSISHMVASCPLKAQQK; LPX101) | – | – | significantly improved re-epithelialization | improved when treated in combination with EGF | promoted glucose metabolism (glycolysis) | 1.4 | 1.3 | healing of diabetic wounds ([3]; db/db mice, 2 mg/ml, 20 μl daily for 14 days): significantly accelerated the healing of diabetic wounds; granulation tissue, day 7 ([3]; db/db mice, day 7 (middle of the healing process)): early formation of granulation tissue; remodeling of the regenerated wound epithelium ([3]; db/db mice, day 14): accelerated; granulation tissue, day 14 ([3]; db/db mice, day 14 (end of the healing process)): early shrinkage (remodeling) of granulation tissue; hyperkeratosis, parakeratosis and acanthosis of the epidermis ([3]; db/db mice, histological analysis on day 14): reduced early; cell permeability ([4]; concentrations of 2 μM and 5 μM): high cell permeability; intracellular localization ([4]; confocal microscopy after 18 hours of peptide treatment): most of LPX101 was present in the cytoplasm; cell growth (NIH3T3 cell line): promoted cell growth; blood vessel formation (capillary vascular rings) [6]: form more mature capillary vascular rings; wound healing (wild type (WT) mice): accelerated wound healing; migration of DHEK cells ([7]; 72 hours after treatment): promoted the migration of DHEK cells
LPX102: cell-penetrating peptide consisting of amino acid sequence SEQ ID NO: 12 (GSERRPKGKSMQKRRSKGDRCYNCGGLDHHAKECKLPPQPKKCHFCQSISHMVASCPL; LPX102) | – | – | significantly improved re-epithelialization | improved when treated in combination with EGF | promoted glucose metabolism (glycolysis) | 1.2 | 1.2 | diabetic wound healing effect (wound healing kinetics and re-epithelialization) compared to LPX101 ([3]; db/db mouse model): better diabetic wound healing effect than LPX101; cell permeability compared to LPX101 ([4]; compared to LPX101 (2 μM)): high cell permeability similar to LPX101; wound healing effect compared to LPX101 [9]: better effects than LPX101; cell migration compared to LPX101 ([7]; DHEK cells, at lower concentrations than LPX101): promoted cell migration to a similar extent to LPX101
LPX104: cell-penetrating peptide of SEQ ID NO: 14, containing SEQ ID NO: 7 with an RNA binding site in zinc finger 2 region (ERRPKGKSMQKRRSKGDRCYNCGGLDHHAKECKLPPQPKKCH; LPX104) | – | – | – | – | – | 1.3 | 1.3 | –
LPX105: cell-penetrating peptide of SEQ ID NO: 37 (RRPKGKSMQKRRSKGDRCYNCGGLDHHAKECKL; LPX105) | significantly promoted cell migration | accelerated the diabetic wound healing | – | – | – | – | – | –
